Data: patent US8629137B2, “CGRP antagonists” (Boehringer Ingelheim International GmbH, priority 2007, dated 2014)

Biological target: T1, human CGRP receptor (Homo sapiens, UniProt O60894+Q16602)
T1 construct: SK-N-MC cells are cultivated in “Dulbecco's modified Eagle medium”; endogenous in cells; host or cells: SK-N-MC cells (membrane homogenate)
Experiment: Binding studies with SK-N-MC cells (expressing the human CGRP receptor)
Conditions: SK-N-MC cell membranes, displacement of 125I-iodotyrosyl-CGRP
Experimental: A. Binding Studies with SK-N-MC Cells (Expressing the Human CGRP Receptor)
SK-N-MC cells are cultivated in “Dulbecco's modified Eagle medium”. The medium is removed from confluent cultures. The cells are washed twice with PBS buffer (Gibco 041-04190 M), detached by the addition of PBS buffer mixed with 0.02% EDTA, and isolated by centrifuging. After resuspension in 20 ml of “Balanced Salts Solution” [BSS (in mM): NaCl 120, KCl 5.4, NaHCO3 16.2, MgSO4 0.8, NaHPO4 1.0, CaCl2 1.8, D-glucose 5.5, HEPES 30, pH 7.40] the cells are centrifuged twice at 100×g and resuspended in BSS. After the number of cells has been determined, the cells are homogenised using an Ultra-Turrax and centrifuged for 10 minutes at 3000×g. The supernatant is discarded and the pellet is recentrifuged in Tris buffer (10 mM Tris, 50 mM NaCl, 5 mM MgCl2, 1 mM EDTA, pH 7.40) enriched with 1% bovine serum albumin and 0.1% bacitracin, and resuspended (1 ml/1000000 cells). The homogenised product is frozen at −80° C. The membrane preparations are stable for more than 6 weeks under these conditions.
After thawing, the homogenised product is diluted 1:10 with assay buffer (50 mM Tris, 150 mM NaCl, 5 mM MgCl2, 1 mM EDTA, pH 7.40) and homogenised for 30 seconds with an Ultra-Turrax. 230 μl of the homogenised product are incubated for 180 minutes at ambient temperature with 50 pM ^125I-iodotyrosyl-Calcitonin-Gene-Related Peptide (Amersham) and increasing concentrations of the test substances in a total volume of 250 μl. The incubation is ended by rapid filtration through GF/B glass fibre filters treated with polyethyleneimine (0.1%) using a cell harvester. The protein-bound radioactivity is measured using a gamma counter. Non-specific binding is defined as the bound radioactivity after the presence of 1 μM human CGRP-alpha during incubation.
The concentration binding curves are analysed using computer-aided non-linear curve fitting.

T1 sequence (Q16602 23-461): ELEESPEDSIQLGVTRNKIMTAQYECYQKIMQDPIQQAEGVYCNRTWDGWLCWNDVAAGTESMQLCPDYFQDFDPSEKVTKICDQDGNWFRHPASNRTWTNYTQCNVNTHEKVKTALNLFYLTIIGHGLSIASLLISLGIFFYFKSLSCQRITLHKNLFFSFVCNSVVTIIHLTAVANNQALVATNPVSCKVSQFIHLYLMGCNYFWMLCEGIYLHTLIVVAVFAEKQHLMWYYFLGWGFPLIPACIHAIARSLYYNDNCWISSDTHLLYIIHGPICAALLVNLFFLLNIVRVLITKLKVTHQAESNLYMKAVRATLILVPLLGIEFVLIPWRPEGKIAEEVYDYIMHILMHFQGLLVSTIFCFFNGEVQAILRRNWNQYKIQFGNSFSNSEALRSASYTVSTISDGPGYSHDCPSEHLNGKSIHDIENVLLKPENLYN
T1 sequence (O60894 27-148): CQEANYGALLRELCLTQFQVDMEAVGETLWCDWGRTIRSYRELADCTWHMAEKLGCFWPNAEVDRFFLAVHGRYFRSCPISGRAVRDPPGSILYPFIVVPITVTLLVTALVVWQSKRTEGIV

Row | Ki [nM] | SMILES
1 | 0.4 | Cc1cc(C(=O)c2cc(N3CCC(n4c(=O)[nH]c5ncccc54)CC3)ncn2)cc2oc(=O)[nH]c12 [(1)]
2 | 1 | Cc1cc(C(=O)c2cc(N3CCC(n4c(=O)[nH]c5c6ccccc6ncc54)CC3)ncn2)cc2oc(=O)[nH]c12 [(4)]
3 | 4 | Cc1cc(C(=O)c2cc(N3CCC(n4nc(-c5ccccc5)[nH]c4=O)CC3)ncn2)cc2oc(=O)[nH]c12 [(3)]
